Here are results for 14 substances from patent US20120083522A1, “MODULATION OF INFLAMMATORY RESPONSES BY FACTOR XI” (Isis Pharmaceuitcals, inc., priority 2009, published 2012).

In the oligonucleotide strings, read from the 5' end, every base follows the letter of its sugar. An asterisk marks phosphorothioate; unmarked linkages are phosphodiester. Other units and linkages are bracketed, terminal groups are in braces. A string of capitals states the bases alone. e = 2'-O-(2-methoxyethyl) (MOE); [5mC] = 5-methylcytosine; d = 2'-deoxy (DNA)

Common to all, as to type: in vivo
The nature of data set [1]: Tolerability in Sprague-Dawley rats: hematology assays (Example 23). More on the design: RBC / WBC / Neutrophil / Lymphocyte / Platelets: unit not given here. The following applies: blood.
The nature of data set [2]: Tolerability in CD1 mice: body and organ weights (Example 21). The note with it: 50 mg/kg s.c. twice per week for 6 weeks, percentage of the body weight.
Description: Body weight was measured at the onset of the study and subsequently twice per week. The body weights of the mice are presented in Table 87 and are expressed increase in grams over the PBS control weight taken before the start of treatment. Liver, spleen, and kidney weights were measured at the end of the study, and are also presented in Table 87 as percentage of the body weight.
Data set [3] in a line: Tolerability in CD1 mice: body and organ weight (Example 25). The following applies: 50 mg/kg s.c. twice per week for 6 weeks; for Kidney weight as percentage of body weight / Liver weight as percentage of body weight / Spleen weight as percentage of body weight: end of study.

In data set [1], “ISIS 416856: gapmer of Table 8 (antisense eG*eG*e[5mC]*eA*eT*dT*dG*dG*dT*dG*d[5mC]*dA*d[5mC]*dA*dG*eT*eT*eT*e[5mC]*eT)” displayed an RBC of 7.7 and a WBC of 19. Also, the Kidney weight in data set [2] turned out to be 1.4%.
In data set [1], “ISIS 416859: gapmer of Table 8 (antisense eG*eA*e[5mC]*eG*eG*d[5mC]*dA*dT*dT*dG*dG*dT*dG*d[5mC]*dA*e[5mC]*eA*eG*eT*eT)” registered an RBC of 7.8 and a WBC of 16.
On the same counts, the results for “ISIS 416860: gapmer of Table 8 (antisense e[5mC]*eG*eG*eA*e[5mC]*dG*dG*d[5mC]*dA*dT*dT*dG*dG*dT*dG*e[5mC]*eA*e[5mC]*eA*eG)” are 7.8 and 17.
As for “ISIS 416861: gapmer of Table 8 (antisense eG*e[5mC]*eG*eG*eA*d[5mC]*dG*dG*d[5mC]*dA*dT*dT*dG*dG*dT*eG*e[5mC]*eA*e[5mC]*eA)”, in data set [1], the RBC was found to be 7.7 and the WBC came out at 15.
On the same counts, the results for “ISIS 416863: gapmer of Table 8 (antisense e[5mC]*eA*eG*e[5mC]*eG*dG*dA*d[5mC]*dG*dG*d[5mC]*dA*dT*dT*dG*eG*eT*eG*e[5mC]*eA)” are 7.6 and 17.
For “ISIS 416866: gapmer of Table 8 (antisense e[5mC]*eT*eG*eG*e[5mC]*dA*dG*d[5mC]*dG*dG*dA*d[5mC]*dG*dG*d[5mC]*eA*eT*eT*eG*eG)” the same measures were 7.8 and 20.
For “ISIS 416867: gapmer of Table 8 (antisense eA*e[5mC]*eT*eG*eG*d[5mC]*dA*dG*d[5mC]*dG*dG*dA*d[5mC]*dG*dG*e[5mC]*eA*eT*eT*eG)” the same measures were 7.8 and 14.
Consider “ISIS 445498: microwalk gapmer of Table 51 (antisense eG*eG*eT*eG*e[5mC]*eA*d[5mC]*dA*dG*dT*dT*dT*d[5mC]*dT*eG*eG*e[5mC]*eA*eG*eG)”, for which, in data set [3], the “Body weight (increase over PBS control weight before start of treatment)” value is on record as 10 g, the “Kidney weight as percentage of body weight” value (shortened to “Kidney weight as percentage”) was 1.6%, the “Liver weight as percentage of body weight” value (shortened to “Liver weight as percentage”) amounted to 6% and the “Spleen weight as percentage of body weight” value (from here on “Spleen weight as percentage”) is given as 0.5%.
For “ISIS 445504: microwalk gapmer of Table 51 (antisense eG*eG*e[5mC]*eA*eT*eT*dG*dG*dT*dG*d[5mC]*dA*d[5mC]*dA*eG*eT*eT*eT*e[5mC]*eT)” the same measures were 11 g, 1.6%, 6% and 0.4%.
Take “ISIS 445505: microwalk gapmer of Table 51 (antisense e[5mC]*eG*eG*e[5mC]*eA*eT*dT*dG*dG*dT*dG*d[5mC]*dA*d[5mC]*eA*eG*eT*eT*eT*e[5mC])”: in data set [3], the “Body weight (increase over PBS control weight before start of treatment)” value was 12 g, the “Kidney weight as percentage” value was 1.5%, the “Liver weight as percentage” value is 6% and the “Spleen weight as percentage” value was found to be 0.5%.
For “ISIS 445509: microwalk gapmer of Table 51 (antisense e[5mC]*eG*eG*eA*e[5mC]*eG*dG*d[5mC]*dA*dT*dT*dG*dG*dT*eG*e[5mC]*eA*e[5mC]*eA*eG)” the same measures were 10 g, 1.6%, 6% and 0.5%.
For “ISIS 445513: microwalk gapmer of Table 51 (antisense eG*e[5mC]*eA*eG*e[5mC]*eG*dG*dA*d[5mC]*dG*dG*d[5mC]*dA*dT*eT*eG*eG*eT*eG*e[5mC])” the same measures were 9 g, 1.6%, 5% and 0.4%.
On the same counts, the results for “ISIS 445530: microwalk gapmer of Table 51 (antisense eG*e[5mC]*eA*eT*eT*dG*dG*dT*dG*d[5mC]*dA*d[5mC]*dA*eG*eT*eT*eT*e[5mC])” are 11 g, 1.5%, 6% and 0.5%.
“ISIS 445532: microwalk gapmer of Table 51 (antisense e[5mC]*eG*eG*e[5mC]*eA*dT*dT*dG*dG*dT*dG*d[5mC]*dA*e[5mC]*eA*eG*eT*eT)”: in data set [3], the “Body weight (increase over PBS control weight before start of treatment)” value is reported as 10 g, the “Kidney weight as percentage” value is given as 1.6%, the “Liver weight as percentage” value was determined as 6% and the “Spleen weight as percentage” value came to 0.4%.
